Assay results reported in publication PMC12130866, “Identification of the lydiamycin biosynthetic gene cluster in a plant pathogen guides structural revision and identification of molecular target” (Proceedings of the National Academy of Sciences of the …, 2025).
Converted amounts (≈) assume the structure as drawn. Numbered stars: 1 amine (or outer) side, 2 acyl side, 3 side chain; on linkers, the order of the positions; unused ones are H or OH. Bridge positions count the residues as written; N and C are the ends. Square brackets hold non-standard residues; d marks the D form. Peptide text beside a SMILES is read from it. * marks the point of attachment. Piz(1,6-dehydro) = O=C(O)[C@@H]1CCC=NN1; X2 = O=C([C@@H]1CCCNN1[*:1])[*:2]; X1 = CCCCC[C@H](CC(=O)O)C(=O)*

Key:
[1] = tested on: R. fascians D188 WT; conditions: 72 h
[2] = molecular target: T1, E. coli PDF (Escherichia coli, UniProt P0A6K3); experiment: In vitro PDF inhibition assay, E. coli PDF, fML-pNA colorimetric coupled; assay type: biochemical; conditions: in vitro inhibition of E. coli PDF (10 nM); fML-pNA 20 µM; Aeromonas aminopeptidase 0.8 U/mL; lydiamycin A 0-50 µM; HEPES buffer pH 7.5, 1% DMSO; 405 nm, room temperature; sigmoidal fit of initial velocities; n = 3 independent experiments, SD
[3] = tested on: R. fascians D188-5
[4] = tested on: R. fascians D188-5; experiment: In planta competition assay, WT or Δlyd against plasmid-free D188-5; conditions: N. benthamiana seedlings, 1:1 mixtures, 1 wk; WT vs Δlyd relative fitness P = 0.0068, two-tailed t test
[5] = tested on: Nicotiana plants
[6] = tested on: mycobacteria; conditions: cited from earlier work
[7] = molecular target: T1, E. coli PDF; experiment: Michaelis-Menten kinetics of E. coli PDF with fML-pNA; assay type: biochemical; conditions: substrate fML-pNA, 405 nm, room temperature; 1% DMSO

T1 sequence (P0A6K3 whole entry): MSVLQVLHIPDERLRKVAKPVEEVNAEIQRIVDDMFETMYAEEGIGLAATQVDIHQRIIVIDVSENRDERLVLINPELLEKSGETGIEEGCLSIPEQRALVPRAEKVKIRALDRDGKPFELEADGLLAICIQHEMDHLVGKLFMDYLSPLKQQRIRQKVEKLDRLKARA

Row | Compound | MIC [1] | IC50 [2] | MIC ([3]; 72 h) | sensitivity of R. fascians D188-5 relative to R. fascians WT ([3]; D188-5 more sensitive than WT, from the MICs) | fitness effect of lydiamycin production in competition with D188-5 [4] | role of lydiamycin A production in leafy gall disease development ([5]; WT versus Δlyd, plant or leafy gall mass at 4 wk) | phytotoxic activity ([5]; concluded from plant/gall mass, seedling root length and excised leaf assays, R. fascians WT versus Δlyd) | inhibition of mycobacteria [6] | Km [7] | kcat [7]
1 | CCCCC[C@H](CC(=O)O)C(=O)N1N=CCC[C@H]1C(=O)N[C@H]1COC(=O)[C@@H]2CCCNN2C(=O)[C@H](C)NC(=O)[C@@H](CC(C)C)NC1=O [lydiamycin A] (X1-[Piz(1,6-dehydro)]S[dL]A[X2]; ester 2-C) | > 600 µg/mL | 6 µM | 10 µg/mL (≈ 15.1 µM) | at least 60 times | significant fitness benefit | not required for leafy gall disease development | does not have phytotoxic activity | previously shown to display antimycobacterial activity |  | 
2 | formyl-methionyl-leucyl-p-nitroaniline [fML-pNA] |  |  |  |  |  |  |  |  | 27 µM | 7 s⁻¹
